The subject of test [1] is phosphorylation of Serine 473 in Akt (MDA-MB-468 cells). Put plainly: Test (c) In Vitro phospho-Ser473 Akt Assay. Type of test: cell-based. The conditions noted are these: Homo sapiens, read-out: IC50 versus Serine 473 in Akt. The procedure:
This assay determines the ability of test compounds to inhibit phosphorylation of Serine 473 in Akt as assessed using Acumen Explorer technology (Acumen Bioscience Limited), a plate reader that can be used to rapidly quantitate features of images generated by laser-scanning.
A MDA-MB-468 human breast adenocarcinoma cell line (LGC Promochem, Teddington, Middlesex, UK, Catalogue No. HTB-132) was routinely maintained at 37° C. with 5% CO2 up to a confluency of 70-90% in DMEM containing 10% heat-inactivated FCS and 1% L-glutamine.
For the assay, the cells were detached from the culture flask using ‘Accutase’ (Innovative Cell Technologies Inc., San Diego, Calif., USA; Catalogue No. AT104) using standard tissue culture methods and resuspended in media to give 1.7×10^5 cells per ml. Aliquots (90 μl) were seeded into each of the inner 60 wells of a black Packard 96 well plate (PerkinElmer, Boston, Mass., USA; Catalogue No. 6005182) to give a density of ˜15000 cells per well. Aliquots (90 μl) of culture media were placed in the outer wells to prevent edge effects. The cells were incubated overnight at 37° C. with 5% CO2 to allow them to adhere.
On day 2, the cells were treated with test compounds and incubated for 2 hours at 37° C. with 5% CO2. Test compounds were prepared as 10 mM stock solutions in DMSO and serially diluted as required with growth media to give a range of concentrations that were 10-fold the required final test concentrations. Aliquots (10 μl) of each compound dilution were placed in a well (in triplicate) to give the final required concentrations. As a minimum response control, each plate contained wells having a final concentration of 100 μM LY294002 (Calbiochem, Beeston, UK, Catalogue No. 440202). As a maximum response control, wells contained 1% DMSO instead of test compound. Following incubation, the contents of the plates were […] by treatment with a 1.6% aqueous formaldehyde solution (Sigma, Poole, Dorset, UK, Catalogue No. F1635) at room temperature for 1 hour.
All subsequent aspiration and wash steps were carried out using a Tecan 96 well late washer (aspiration speed 10 mm/sec). The fixing solution was removed and the contents of the plates were washed with phosphate-buffered saline (PBS; 50 μl; Gibco, Catalogue No. 10010015). The contents of the plates were treated for 10 minutes at room temperature with an aliquot (50 μl) of a cell permeabilisation buffer consisting of a mixture of PBS and 0.5% Tween-20. […] An aliquot of PBS (50 μl) was added to each well and the plates were sealed with black plate sealers and the fluorescence signal was detected and analysed.
Fluorescence dose response data obtained with each compound were analysed and the degree of inhibition of Serine 473 in Akt was expressed as an IC50 value.

The target of test [2] is mTOR PI kinase-related kinase (Homo sapiens, UniProt P42345). The test is described as follows: Test (b) In Vitro mTOR PI Kinase-Related Kinase Assay (AlphaScreen). The class given is biochemical. Conditions: read-out: IC50 versus mTOR PI kinase-related kinase. The protocol:
The assay used AlphaScreen technology (Gray et al., Analytical Biochemistry, 2003, 313: 234-245) to determine the ability of test compounds to inhibit phosphorylation by recombinant mTOR.
The HEK293 FLAG-tagged mTOR (1362-2549) stable cell line was routinely maintained at 37° C. with 5% CO2 up to a confluency of 70-90% in Dulbecco's modified Eagle's growth medium (DMEM; Invitrogen Limited, Paisley, UK Catalogue No. 41966-029) containing 10% heat-inactivated foetal calf serum (FCS; Sigma, Poole, Dorset, UK, Catalogue No. F0392), 1% L-glutamine (Gibco, Catalogue No. 25030-024) and 2 mg/ml Geneticin (G418 sulphate; Invitrogen Limited, UK Catalogue No. 10131-027). Following expression in the mammalian HEK293 cell line, expressed protein was purified using the FLAG epitope tag using standard purification techniques.
Test compounds were prepared as 10 mM stock solutions in DMSO and diluted into water as required to give a range of final assay concentrations. Aliquots (2 μl) of each compound dilution were placed into a well of a Greiner 384-well low volume (LV) white polystyrene plate (Greiner Bio-one). […]
Each reaction was stopped by the addition of 10 μl of a mixture of EDTA (50 mM), bovine serum albumin (BSA; 0.5 mg/ml) and Tris-HCl pH7.4 buffer (50 mM) containing p70 S6 Kinase (T389) 1A5 Monoclonal Antibody (Cell Signalling Technology, Catalogue No. 9206B) and AlphaScreen Streptavidin donor and Protein A acceptor beads (200 ng; Perkin Elmer, Catalogue No. 6760002B and 6760137R respectively) were added and the assay plates were left for about 20 hours at room temperature in the dark. The resultant signals arising from laser light excitation at 680 nm were read using a Packard Envision instrument.
Phosphorylated biotinylated peptide is formed in situ as a result of mTOR mediated phosphorylation. […] Upon laser light excitation at 680 nm, the donor bead: acceptor bead complex produces a signal that can be measured. […]
mTOR enzyme inhibition for a given test compound was expressed as an IC50 value.
Background: In Alpha technology, singlet oxygen from a donor bead excites a nearby acceptor bead.

The values that follow come from patent publication US7868188B2, “5-heteroaryl thiazoles and their use as PI3K inhibitors” (AstraZeneca AB, priority 2004, dated 2011).

Where a name gives a salt, the structure may show the parent alone.

mTOR PI kinase-related kinase, sequence (P42345 1362-2549): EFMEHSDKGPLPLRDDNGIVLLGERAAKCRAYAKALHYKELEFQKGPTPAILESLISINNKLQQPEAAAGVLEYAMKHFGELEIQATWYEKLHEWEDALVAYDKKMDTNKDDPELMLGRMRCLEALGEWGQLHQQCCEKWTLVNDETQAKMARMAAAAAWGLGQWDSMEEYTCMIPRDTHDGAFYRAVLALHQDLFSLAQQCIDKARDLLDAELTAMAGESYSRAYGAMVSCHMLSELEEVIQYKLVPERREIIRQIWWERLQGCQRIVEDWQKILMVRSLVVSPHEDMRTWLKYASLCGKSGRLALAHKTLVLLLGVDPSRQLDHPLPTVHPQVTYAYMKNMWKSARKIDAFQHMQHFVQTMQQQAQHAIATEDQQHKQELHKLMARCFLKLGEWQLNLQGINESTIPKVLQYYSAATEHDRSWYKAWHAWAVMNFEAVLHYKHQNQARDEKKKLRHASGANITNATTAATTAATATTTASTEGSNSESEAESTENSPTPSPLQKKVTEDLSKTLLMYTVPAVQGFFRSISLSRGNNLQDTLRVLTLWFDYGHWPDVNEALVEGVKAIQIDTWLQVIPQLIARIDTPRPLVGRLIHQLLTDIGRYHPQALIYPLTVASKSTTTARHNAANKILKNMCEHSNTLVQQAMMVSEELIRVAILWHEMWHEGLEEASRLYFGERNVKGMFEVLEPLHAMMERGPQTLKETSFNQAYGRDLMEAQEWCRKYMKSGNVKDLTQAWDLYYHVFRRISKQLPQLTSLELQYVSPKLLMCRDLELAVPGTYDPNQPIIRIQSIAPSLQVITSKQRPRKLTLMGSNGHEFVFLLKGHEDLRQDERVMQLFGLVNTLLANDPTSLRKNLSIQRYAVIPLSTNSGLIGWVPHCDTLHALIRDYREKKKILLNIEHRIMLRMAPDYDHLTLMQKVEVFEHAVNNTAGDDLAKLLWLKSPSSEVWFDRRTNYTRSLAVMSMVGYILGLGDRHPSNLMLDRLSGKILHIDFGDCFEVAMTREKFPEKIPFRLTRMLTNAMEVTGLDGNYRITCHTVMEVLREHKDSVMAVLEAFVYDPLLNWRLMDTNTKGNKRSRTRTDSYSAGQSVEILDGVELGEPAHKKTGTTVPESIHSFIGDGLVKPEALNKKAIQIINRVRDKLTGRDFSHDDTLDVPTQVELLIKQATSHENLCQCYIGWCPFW

Take `CC(=O)Nc1nc(C)c(-c2cnc(Cl)c(NCc3ccc(F)cc3)c2)s1` [Compound No. 3 within Example 79, N-{5-[6-Chloro-5-(4-fluorobenzylamino)pyridin-3-yl]-4-methyl-1,3-thiazol-2-yl}acetamide]: the IC50 in test [1] is around 200 nM; in test [2], around 2000 nM.

`CC(=O)Nc1nc(C)c(-c2cnc(Cl)c(S(=O)(=O)Nc3ccccc3)c2)s1` [Compound No. 4 within Example 73, N-{5-[6-Chloro-5-(N-phenylsulfamoyl)pyridin-3-yl]-4-methyl-1,3-thiazol-2-yl]acetamide]: the IC50 is around 200 nM in test [1] and around 700 nM in test [2].

In the case of `CC(=O)Nc1nc(C)c(-c2cnc(Cl)c(NS(C)(=O)=O)c2)s1` [Example 28, N-[5-(6-Chloro-5-methylsulfonylaminopyridin-3-yl)-4-methyl-1,3-thiazol-2-yl]acetamide trifluoroacetate], the figures for the IC50 in test [1] and in test [2] were around 300 nM and around 20 nM, respectively.

By IC50 is commonly meant the concentration at which inhibition is half-maximal.
